Measurements reported in patent publication US6268391A, “Benzylidene-1,3-dihydro-indol-2-one derivatives a receptor tyrosine kinase inhibitors, particularly of Raf kinases” (Glaxo Wellcome Inc., priority 1997, dated 2001).

These compounds were tested against T1, Human cRaf1 (Homo sapiens, UniProt P04049) (assay: Raf kinase assay (cRaf1 assay / Raf/MEK cascade assay)). Conditions: Table 3; read-out: Raf Kinase activity.
T1 construct: poly-histidine (C); made in house
Assay type: biochemical
Method: The potency of cRaf1 dependent kinase activity was measured using one of two assay formats. The first measured cRaf1 catalyzed phosphorylation of MEK1, the natural substrate for cRaf1. This assay is referred to as the cRaf1 assay. The second measured the ability of cRaf1 to phosphorylate and activate MEK1. This assay is referred to as the Raf/MEK cascade assay.
Human cRaf1 tagged with poly histidine at the carboxyterminus was expressed in a baculovirus expression system and purfied by Ni chelate affinity chromatography. Human MEK1 was expressed in E. coli as a fusion protein with Glutathione-S-transferase, and purified by glutathione sepharose affinity chromatography. […] Reactions contained cRaf1 (20 nM), MEK1 (100-500 nM), [γ-^32 P]ATP ([…]), Mg^2+ (10 mM), MOPS (50 mM, pH 7.5). Reactions were incubated at room temperature for periods of time ranging from 20-120 minutes. Inhibitors were diluted in 100% DMSO prior to addition to the assay. Reactions were terminated with an equal volume of 0.5% phosphoric acid. MEK1 phosphorylation was detected by scintillation counting following collection of protein onto phosphocellulose filters.
Human cRaf1 and MEK1 were purified as described above. A peptide substrate phosphorylated by MEK1 was used as the final phosphoryl group acceptor. […] Assay conditions were the same as those described above except for the following modifications. Reactions contained cRaf1 (1-5 nM), MEK1 (60 nM), and peptide ([…]).

T1 sequence (P04049 whole entry): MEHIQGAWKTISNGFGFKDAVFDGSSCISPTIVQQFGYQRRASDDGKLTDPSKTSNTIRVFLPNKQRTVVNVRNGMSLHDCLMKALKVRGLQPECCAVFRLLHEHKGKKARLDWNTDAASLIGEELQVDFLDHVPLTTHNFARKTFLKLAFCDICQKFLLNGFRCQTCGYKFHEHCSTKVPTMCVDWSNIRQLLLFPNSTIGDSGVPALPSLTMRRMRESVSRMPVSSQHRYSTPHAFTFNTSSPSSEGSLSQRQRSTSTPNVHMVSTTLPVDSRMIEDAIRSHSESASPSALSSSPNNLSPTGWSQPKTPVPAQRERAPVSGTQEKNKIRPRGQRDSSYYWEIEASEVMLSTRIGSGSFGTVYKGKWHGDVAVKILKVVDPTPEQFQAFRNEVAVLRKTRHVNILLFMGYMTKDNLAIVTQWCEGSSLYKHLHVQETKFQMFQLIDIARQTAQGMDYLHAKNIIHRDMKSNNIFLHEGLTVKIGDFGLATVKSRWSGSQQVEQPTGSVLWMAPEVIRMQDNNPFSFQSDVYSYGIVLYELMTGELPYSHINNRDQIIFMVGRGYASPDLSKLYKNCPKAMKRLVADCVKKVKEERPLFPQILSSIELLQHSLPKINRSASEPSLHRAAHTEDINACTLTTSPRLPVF

| IC50 [nM] | SMILES |
| --- | --- |
| < 1000 | O=C1Nc2ccc(Cl)cc2C1=Cc1cc(Br)c(O)c(Br)c1 [Example 38, 5-Chloro-3-(3,5-dibromo-4-hydroxy-benzylidene)-1,3-dihydro-indol-2-one] |
| < 1000 | O=C1Nc2ccc(Cl)cc2C1=Cc1cc(Cl)c(O)c(Cl)c1 [Example 39, 5-Chloro-3-(3,5-dichloro-4-hydroxy-benzylidene)-1,3-dihydro-indol-2-one] |
| < 1000 | O=C1Nc2ccc(Br)cc2C1=Cc1cc(Cl)c(O)c(Cl)c1 [Example 41, 5-Bromo-3-(3,5-dichloro-4-hydroxy-benzylidene)-1,3-dihydro-indol-2-one] |
| < 1000 | CCOc1cc(C=C2C(=O)Nc3ccc(I)cc32)cc(Br)c1O [Example 42, 3-(3-Bromo-5-ethoxy-4-hydroxy-benzylidene)-5-iodo-1,3-dihydro-indol-2-one] |
| < 1000 | COc1cc(C=C2C(=O)Nc3ccc(I)cc32)cc(Br)c1O [Example 43, 3-(3-Bromo-4-hydroxy-5-methoxy-benzylidene)-5-iodo-1,3-dihydro-indol-2-one] |
| < 1000 | O=C1Nc2ccc(Br)cc2C1=Cc1cc(I)c(O)c(I)c1 [Example 44, 5-Bromo-3-(3,5-diiodo-4-hydroxy-benzylidene)-1,3-dihydro-indol-2-one] |
| 1000 to 10000 | O=C1Nc2ccccc2C1=Cc1cc(Cl)c(O)c(Cl)c1 [Example 48, 3-(3,5-dichloro-4-Hydroxy-benzylidene)-1,3-dihydro-indol-2-one] |
| 1000 to 10000 | COc1cc(C=C2C(=O)Nc3ccccc32)cc(Cl)c1O [Example 49, 3-(3-Chloro-4-hydroxy-5-methoxy-benzylidene)-1,3-dihydro-indol-2-one] |
| < 1000 | COc1cc(C=C2C(=O)Nc3ccc(Cl)cc32)cc(Br)c1O [Example 51, 3-(3-Bromo-4-hydroxy-5-methoxy-benzylidene)-5-chloro-1,3-dihydro-indol-2-one] |
| < 1000 | COc1cc(C=C2C(=O)Nc3ccc(Cl)cc32)cc(Cl)c1O [Example 54, 5-Chloro-3-(3-chloro-4-hydroxy-5-methoxy-benzylidene)-1,3-dihydro-indol-2-one] |
| < 1000 | O=C1Nc2ccc(Cl)cc2C1=Cc1cc(I)c(O)c(I)c1 [Example 55, 5-Chloro-3-(3,5-diiodo-4-hydroxy-benzylidene)-1,3-dihydro-indol-2-one] |
| < 1000 | CCOc1cc(C=C2C(=O)Nc3ccc(Br)cc32)cc(Br)c1O [Example 56, 5-Bromo-3-(3-bromo-5-ethoxy-4-hydroxy-benzylidene)-1,3-dihydro-indol-2-one] |
| < 1000 | COc1cc(C=C2C(=O)Nc3ccc(Br)cc32)cc(Br)c1O [Example 57, 5-Bromo-3-(3-bromo-4-hydroxy-5-methoxy-benzylidene)-1,3-dihydro-indol-2-one] |
| < 1000 | O=C1Nc2ccc(OC(F)(F)F)cc2C1=Cc1cc(Cl)c(O)c(Cl)c1 [Example 60, 3-(3,5-Dichloro-4-hydroxy-benzylidene)-5-trifluoromethoxy-1,3-dihydro-indol-2-one] |
| < 1000 | O=C1Nc2ccc([N+](=O)[O-])cc2C1=Cc1cc(Br)c(O)c(Br)c1 [Example 63, 3-(3,5-Dibromo-4-hydroxy-benzylidene)-5-nitro-1,3-dihydro-indol-2-one] |
| < 1000 | O=C1Nc2ccc([N+](=O)[O-])cc2C1=Cc1cc(Cl)c(O)c(Cl)c1 [Example 65, 3-(3,5-Dichloro-4-hydroxy-benzylidene)-5-nitro-1,3-dihydro-indol-2-one] |
| < 1000 | O=C1Nc2c(Br)cccc2C1=Cc1cc(Cl)c(O)c(Cl)c1 [Example 67, 7-Bromo-3-(3,5-dichloro-4-hydroxy-benzylidene)-1,3-dihydro-indol-2-one] |

The next lines start with the compound.

| SMILES | IC50 [nM] |
| --- | --- |
| O=C1Nc2ccc(S(=O)(=O)N3CCCC3)cc2C1=Cc1cc(Br)c(O)c(Br)c1 [Example 35, 3-(3,5-Dibromo-4-hydroxy-benzylidene)-5-(pyrrolidine-1-sulfonyl)-1,3-dihydro-indol-2-one] | < 1000 |
| CN(C)CCN(C)S(=O)(=O)c1ccc2c(c1)C(=Cc1cc(Br)c(O)c(Br)c1)C(=O)N2 [Example 36, 3-(3,5-Dibromo-4-hydroxy-benzylidene)-2-oxo-2,3-dihydro-1H-indol-5-sulfonic acid (N-2-dimethylamino-ethyl)-N-methyl-amide] | < 1000 |
| O=C1Nc2ccc(C(=O)c3ccno3)cc2C1=Cc1cc(Br)c(O)c(Br)c1 [Example 37, 3-(3,5-Dibromo-4-hydroxy-benzylidene)-5-(isoxazole-5-carbonyl)-1,3-dihydro-indol-2-one] | < 1000 |
| O=C1Nc2ccc(OC(F)(F)F)cc2C1=Cc1cc(Br)c(O)c(Br)c1 [Example 40, 3-(3,5-Dibromo-4-hydroxy-benzylidene)-5-trifluoromethoxy-1,3-dihydro-indol-2-one] | < 1000 |
| O=C1Nc2ccc(OC(F)(F)F)cc2C1=Cc1cc(I)c(O)c(I)c1 [Example 45, 3-(3,5-diiodo-4-Hydroxy-benzylidene)-5-trifluoromethoxy-1,3-dihydro-indol-2-one] | < 1000 |
| COc1cc(C=C2C(=O)Nc3ccccc32)cc(Br)c1O [Example 46, 3-(3-Bromo-4-hydroxy-5-methoxy-benzylidene)-1,3-dihydro-indol-2-one] | < 1000 |
| O=C1Nc2ccccc2C1=Cc1cc([N+](=O)[O-])c(O)c([N+](=O)[O-])c1 [Example 47, 3-(3,5-dinitro-4-Hydroxy-benzylidene)-1,3-dihydro-indol-2-one] | 1000 to 10000 |
| O=C1Nc2ccccc2C1=Cc1cc(I)c(O)c(I)c1 [Example 50, 3-(3,5-diiodo-4-Hydroxy-benzylidene)-1,3-dihydro-indol-2-one] | 1000 to 10000 |
| O=C1Nc2ccc(Cl)cc2C1=Cc1cc([N+](=O)[O-])c(O)c([N+](=O)[O-])c1 [Example 52, 5-Chloro-3-(3,5-dinitro-4-hydroxy-benzylidene)-1,3-dihydro-indol-2-one] | < 1000 |
| COc1cc(C=C2C(=O)Nc3ccc(Cl)cc32)cc([N+](=O)[O-])c1O [Example 53, 5-Chloro-3-(4-hydroxy-3-methoxy-5-nitro-benzylidene)-1,3-dihydro-indol-2-one] | < 1000 |
| COc1cc(C=C2C(=O)Nc3cc(F)c(F)cc32)cc(Br)c1O [Example 58, 3-(3-Bromo-4-hydroxy-5-methoxy-benzylidene)-5,6-difluoro-1,3-dihydro-indol-2-one] | < 1000 |
| CCOc1cc(C=C2C(=O)Nc3ccc(OC(F)(F)F)cc32)cc(Br)c1O [Example 59, 3-(3-Bromo-5-ethoxy-4-hydroxy-benzylidene)-5-trifluoromethoxy-1,3-dihydro-indol-2-one] | < 1000 |
| COc1cc(C=C2C(=O)Nc3ccc(OC(F)(F)F)cc32)cc(Br)c1O [Example 61, 3-(3-Bromo-4-hydroxy-5-methoxy-benzylidene)-5-trifluoromethoxy-1,3-dihydro-indol-2-one] | < 1000 |
| O=C1Nc2c(cc([N+](=O)[O-])cc2[N+](=O)[O-])C1=Cc1cc(Br)c(O)c(Br)c1 [Example 62, 3-(3,5-Dibromo-4-hydroxy-benzylidene)-5,7-dinitro-1,3-dihydro-indol-2-one] | < 1000 |
| O=C1Nc2c(I)cccc2C1=Cc1cc(Br)c(O)c(Br)c1 [Example 64, 3-(3,5-Dibromo-4-hydroxy-benzylidene)-7-iodo-1,3-dihydro-indol-2-one] | < 1000 |
